Data from US20130172308A1, “ANTIMICROBIAL AGENTS” (John Grant COLLINS, priority 2011, published 2013).

Experiments:
[1] = system: P. aeruginosa ATCC 27853; experiment: MIC determination, broth micro-dilution (CAMHB); format: cell-based, Pseudomonas aeruginosa
Description: (§1) Four strains of bacteria were chosen for the susceptibility tests: S. aureus ATCC 25923; MRSA (a wild clinical strain from the JCU culture collection); E. coli ATCC 25922 and P. aeruginosa ATCC 27853. The bacteria were grown on Mueller Hinton agar (OXOID, cat. No. CM0337) and suspended in growth medium cation-adjusted Mueller Hinton broth (CAMHB, OXOID, cat. No. CM0405). The MIC of each complex was determined in duplicate by standard micro-dilution methodology (British Society for Antimicrobial Chemotherapy Working Party, J. Antimicrob. Chemother., 1991, 27(suppl. D), 22) using gentamicin as the positive control. The ruthenium complexes were dissolved in CAMHB to a stock solution of […] and two-fold diluted in the broth in 96-well plates in a final volume of […] in each well. The same volume […] of bacterial suspension was added in each well making a concentration range of 0.25 mg ml^−1 to 128 mg ml^−1 for each complex. The plates were incubated at 37° C. for 24 h. The results are summarised in Table 1 below, using the following abbreviations: • Rubpm=ΔΔ-[{Ru(phen)2}2(μ-2,2′-bipyrimidine)]Cl4 • Rudppm=ΔΔ-[{Ru(phen)2}2(μ-4,6-bis(2-pyridyl)pyrimidine)]Cl4 • Rubb7trinuclear=Δ*Δ*-[{Ru*(phen)2}(μ-bb7){Ru(phen)}(μ-bb7){Ru*(phen)2}]Cl6 (only the two terminal metal centres are chiral, the two central metal centres are racemic) • Rubb7tetranuclear=Δ*Δ*-[{Ru*(phen)2}(μ-bb7) {Ru(phen)}(μ-bb7){Ru(phen)}(μ-bb7)-{Ru*(phen)2}]Cl8 (only the two terminal metal centres are chiral, the two central metal centres are racemic)
(§2) Further MIC assays and Minimum Bactericidal Concentration (MBC) assays were conducted against Gram-positive and Gram-negative bacterial strains using symmetric and non-symmetric, inert and labile complexes.

[2] = system: E. coli; experiment: Minimum Bactericidal Concentration (MBC) assay (CAMHB); format: cell-based, Escherichia coli; settings: Table 4, all ΔΔ- enantiomers
Description: as §2

[3] = system: MRSA (a wild clinical strain from the JCU culture collection); experiment: MIC determination, broth micro-dilution (CAMHB); format: cell-based, methicillin-resistant S. aureus
Description: as §1, §2

[4] = system: S. aureus; experiment: Minimum Bactericidal Concentration (MBC) assay (CAMHB); format: cell-based, Staphylococcus aureus; settings: Table 4, all ΔΔ- enantiomers
Description: as §2

[5] = system: MRSA; experiment: as above; format: cell-based, methicillin-resistant S. aureus; settings: Table 4, all ΔΔ- enantiomers
Description: as §2

[6] = system: S. aureus ATCC 25923; experiment: MIC determination, broth micro-dilution (CAMHB); format: cell-based, Staphylococcus aureus
Description: as §1, §2

[7] = system: P. aeruginosa; experiment: Minimum Bactericidal Concentration (MBC) assay (CAMHB); format: cell-based, Pseudomonas aeruginosa; settings: Table 4, all ΔΔ- enantiomers
Description: as §2

[8] = system: E. coli ATCC 25922; experiment: MIC determination, broth micro-dilution (CAMHB); format: cell-based, Escherichia coli
Description: as §1, §2

[9] = format: physicochemical; settings: pH 7.4
Description: The primary difference between the members of the Rubbn family of complexes is the number of methylene groups in the flexible linking chain. […] Lipophilicity is a significant factor affecting the biological activity of most therapeutic compounds, as it relates to the capacity of the drug to penetrate through the cell membrane. The standard octanol-water partition coefficient (logP) was determined for the Rubbn series (F. Lombardo, B. Faller, M. Shalaeva, I. Tetko and S. Tilton, Methods and Principles in Medicinal Chemistry, 2008, 37, 407) parent model mononuclear species ([Ru(phen)2(Me2bpy)]^2+) and the trinuclear and tetranuclear complexes.
The partition coefficients (logP) were measured using the shake flask technique: each ruthenium complex (at both 0.05 and 0.1 mM) was dissolved in the water phase (0.2 M Na2HPO4—NaH2PO4 buffer, pH=7.4) and an equivalent volume of n-octanol was added.
The two phases were mutually saturated by shaking overnight at ambient temperature and then were allowed to separate on standing. The concentration of the metal complex in each phase was determined spectrophotometrically at l=450 nm.

[10] = system: S. epidermidis; experiment: Further MIC assays, whole spectrum bacteria (CAMHB); format: cell-based; settings: Table 3; Broth: CAMHB
Description: (§3) Further MIC assays were conducted against five different bacteria with Rubbn (n=7, 10, 12, 16), two rigid dinuclear species (bridges bpm and dppm) and Gentamicin—Whole spectrum bacteria MIC test results (Broth: CAMHB).

[11] = system: S. typhimurium; experiment: as above; format: cell-based; settings: Table 3; Broth: CAMHB
Description: as §3

[12] = system: VRE; experiment: as above; format: cell-based, vancomycin-resistant Enterococcus; settings: Table 3; Broth: CAMHB
Description: as §3

[13] = system: A. baumanii; experiment: as above; format: cell-based; design: unit not given here; settings: Table 3; Broth: CAMHB
Description: as §3

[14] = system: E. faecalis; experiment: as above; format: cell-based; design: unit not given beside the values; settings: Table 3; Broth: CAMHB
Description: as §3

[15] = Table 4, CAMHB, all ΔΔ- enantiomers

Compound | MIC P. aeruginosa [1, 15] | MBC E. coli [2] | MIC MRSA [3, 15] | MBC S. aureus [4] | MBC MRSA [5] | MIC S. aureus [6, 15] | MBC P. aeruginosa [7] | MIC E. coli [8, 15] | logP [9] | MIC S. epidermidis [10] | MIC S. typhimurium [11] | MIC P. aeruginosa ([1]; Table 1, 37° C., 24 h) | MIC VRE [12] | MIC MRSA ([3]; Table 1, 37° C., 24 h) | MIC A. baumanii [13] | MIC E. faecalis [14] | MIC S. aureus ([6]; Table 1, 37° C., 24 h) | MIC E. coli ([8]; Table 1, 37° C., 24 h)
[{Ru(terpy)(Cl)}2(μ-bb14)](PF6)2 [Rubb14-Cl] | 32 | 2 mg/L | 1 | 1 mg/L | 2 mg/L | 1 | 64 mg/L | 2 |  |  |  |  |  |  |  |  |  | 
Cc1cc[n+]2c(c1)-c1cc(CCCCCCCc3cc[n+]4c(c3)-c3cc(C)cc[n+]3[Ru-4]435([n+]4cccc6ccc7ccc[n+]3c7c64)[n+]3cccc4ccc6ccc[n+]5c6c43)cc[n+]1[Ru-4]213([n+]2cccc4ccc5ccc[n+]1c5c42)[n+]1cccc2ccc4ccc[n+]3c4c21.F[P-](F)(F)(F)(F)F.F[P-](F)(F)(F)(F)F.F[P-](F)(F)(F)(F)F.F[P-](F)(F)(F)(F)F [Rubb7, [{Ru(phen)2}2(μ-bb7)](PF6)4] | 64 | 16 mg/L | 16 | 32 mg/L | 32 mg/L | 16 | 128 mg/L | 16 | −3.4 |  |  |  |  |  |  |  |  | 
[Ru(phen)2(μ-bb12)Ru(terpy)Cl](PF6)3 [Ru(μ-bb12)Ru—Cl] | 16 | 1 mg/L | 1 | 1 mg/L | 2 mg/L | 1 | 32 mg/L | 1 |  |  |  |  |  |  |  |  |  | 
gentamicin [reference compound] |  |  |  |  |  |  |  |  |  | <0.125 | 2 | 0.125 µg/mL | 16 | 16 µg/mL | 16 | 32 | ≦0.0625 μg.ml^−1 | 0.5 µg/mL
Δ*Δ*-[{Ru*(phen)2}(μ-bb7){Ru(phen)}(μ-bb7){Ru*(phen)2}]Cl6 [Rubb7trinuclear] |  |  |  |  |  |  |  |  | −1.2 |  |  | 2 µg/mL |  | 4 µg/mL |  |  | 4 µg/mL | 16 µg/mL
Δ-[Ru(phen)2(bb16)]Cl2 [Rubb16mono] |  |  |  |  |  |  |  |  | +2.1 |  |  | 64 µg/mL |  | 16 µg/mL |  |  | 16 µg/mL | 64 µg/mL
